Assay results reported in the supplement of paper PMC10949913.

How the values were obtained:
Test in all cases: area under concentration-response curve (viability) (AUC (a.u.)); higher = less active
Settings in all cases: 48 h
[1] = tested on: CU-ACC1
Procedure, shortened: (§1)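 In 1,536-well plates, 500–1,000 cells/well of three adrenocortical carcinoma cell lines in 5 µL medium received 23 nL of each library compound across 11 concentrations. At 48 h, CellTiter-Glo was incubated for 15 minutes at room temperature and luminescence measured. Per-plate normalisation used vehicle and empty-well controls, and only inhibitory or non-responding curve classes were kept when fitting concentration-response curves for AC50 and area under the curve.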

[2] = tested on: CU-ACC2
Procedure, shortened: as §1

[3] = tested on: NCI-H295R
Procedure, shortened: as §1

SMILES	area under concentration-response curve [1]	area under concentration-response curve [2]	area under concentration-response curve [3]
NC\1=N\C(=O)N(\C=N1)[C@H]2C[C@H](O)[C@@H](CO)O2	500	588	484
CC1CNc2c(cccc2[S+](=O)([O-])N[C@@H](CCCNC(=N)N)C(=O)N2CC[C@@H](C)C[C@@H]2C(=O)O)C1 (some centres undefined)	502	547	507
CCCCCCCCCCCCCCCCCCCCCCO	538	562	525
N#CCC1(n2cc(-c3ncnc4[nH]ccc34)cn2)CN(C2CCN(C(=O)c3ccnc(C(F)(F)F)c3F)CC2)C1	460	453	508
CC(C)(C)c1cc(C(=O)O)c(NC(=O)Nc2ccc3[nH]ncc3c2)s1	551	614	582
COc1cc([S+](C)(=O)[O-])ccc1Nc1nc2ccc(-c3ccc(NC(=O)[C@H](C)c4ccc(F)cc4)cc3)cn2n1	565	648	567
OC[C@H]1O[C@H]([C@H](O)[C@@H]1O)N2/C=C\C=N/C2=O	525	609	583
OC(=O)\C1=C\N(C2CC2)C3=CC(=C(F)C=C3C1=O)N4CCNCC4	571	693	561
CCC[C@H](N[C@@H](C)C(=O)N1[C@H](C(=O)O)C[C@@H]2CCCC[C@@H]21)C(=O)OCC	531	589	548
CCC[C@@H]1C[C@@H](C(=O)N[C@@H]([C@H]2O[C@H](SC)[C@H](O)[C@@H](O)[C@H]2O)[C@H](C)Cl)N(C)C1	527	458	541
C=CC(=O)Nc1cc(N2CCN(CC)CC2)ccc1Nc1cc(N(C)C(=O)Nc2c(Cl)c(OC)cc(OC)c2Cl)ncn1	537	566	495
Nc1ccc([S+](N)(=O)[O-])cc1	417	415	409
CC(C)(C)[S+](=O)([O-])c1ccc2nccc(Nc3n[nH]c4ccc(F)cc34)c2c1	526	627	561
O=C(CCc1ccc(O)cc1)c1c(O)cc(O)cc1O	531	653	585
C[N]1C2=C(SC(=C2)[S+](C)[O-])C\3=C1C(=O)N(CC4=CC(=CC=C4)N)\N=C3 (centres undefined)	363	511	468
CC(=O)NC[C@H]1CN(c2ccc(N3CCOCC3)c(F)c2)C(=O)O1	565	700	612
NC(=O)c1cnc(-c2ccc(C3(N)CCC3)cc2)c(-c2ccccc2)c1	537	648	554
CC1=C(CC(=O)O)c2cc(F)ccc2/C1=C\c1ccc([S+](C)[O-])cc1 (centres undefined)	526	647	573
O=C(c1cncc(Br)c1)N1CCC(N2CCCC2)CC1	489	440	528
C[C@]12CC[C@@H]3c4ccc(OC(=O)N(CCCl)CCCl)cc4CC[C@H]3[C@@H]1CC[C@@H]2OP(=O)([O-])[O-]	489	466	533
CC(C)OC(=O)C(C(=O)OC(C)C)=C1S\C=C/S1	517	638	575
OCCC#Cc1nc(-c2ccc(F)cc2)c(-c2ccncc2)n1CCCc1ccccc1	513	536	475
OC[C@H]1OC(O)C[C@@H](O)[C@@H]1O (some centres undefined)	562	694	607
CCN(C(=O)c1ccccc1OC)c1cc2c(cc1N1CCNC[C@H]1C)n(C)c(=O)n2C	544	628	510

SMILES	area under concentration-response curve [1]	area under concentration-response curve [2]	area under concentration-response curve [3]
Nc1nc(Cl)nc2c1ncn2[C@H]1C[C@H](O)[C@@H](CO)O1	558	601	537
COc1nc(C)nc(Cl)c1NC1=NCCN1	468	436	504
CC(C)OC(=O)C(C)(C)Oc1ccc(C(=O)c2ccc(Cl)cc2)cc1	593	608	517
C[C@H]1C[C@H]2[C@@H]3CC\C4=C\C(=O)\C=C/[C@]4(C)[C@H]3C(=O)C[C@]2(C)[C@@]1(O)C(=O)CO	511	618	488
CC(C(C)N1CC(=O)NC(=O)C1)N1CC(=O)NC(=O)C1 (centres undefined)	488	605	538
CN1CCN(CCCNc2ncc(Cl)c(-c3cc4c(C(=O)NC5CC5)cccc4s3)n2)CC1	468	557	492
CC[C@H]1OC(=O)[C@H](C)[C@@H](O[C@H]2C[C@@](C)(OC)[C@@H](O)[C@H](C)O2)[C@H](C)[C@@H](O[C@@H]2O[C@H](C)C[C@H](N(C)C)[C@H]2O)[C@](C)(O)C[C@@H](C)C(=O)[C@H](C)[C@@H](O)[C@]1(C)O	544	634	594
O=C1\C=C/C[C@@H]2[C@H]3CCCN4CCC[C@@H](CN12)[C@@H]34	541	509	546
COc1ccc([S+](=O)([O-])NCc2ccc(C(=O)NCCc3ccc(Cl)cn3)cc2)cc1	565	654	614
C[C@H](CCC(=O)O)[C@H]1CC[C@H]2[C@@H]3[C@H](O)C[C@@H]4C[C@H](O)CC[C@]4(C)[C@H]3CC[C@]12C	477	558	485
CC1C\2C(O)C3C(N(C)C)C(=O)\C(=C(O)/C3(O)C(=O)C2=C(O)/C4=C1C=CC=C4O)C(N)=O (centres undefined)	473	573	502
CN(CCOc1ccc(CC2SC(=O)NC2=O)cc1)c1ccccn1 (centres undefined)	515	644	576
O=C([C@@H](Cc1cccc(C(F)(F)F)c1)N[S+](=O)([O-])c1cc(F)c2c(c1)CCNC2)N1CCCC1	528	515	535
Cc1ccc(O)c(C(CCN(C(C)C)C(C)C)c2ccccc2)c1.Cl (centres undefined)	491	625	558
NCC[S+](=O)([O-])O	495	585	488
CN(CC1=CC2=C(N\C(=N/C2=O)C)C=C1)C3=CC=C(S3)C(=O)N[C@@H](CCC(O)=O)C(O)=O	503	602	532
O=C(NCC(=O)N1CC[C@H](NC2CCC(O)(c3ccc(-c4ncccn4)cn3)CC2)C1)c1cccc(C(F)(F)F)c1 (some centres undefined)	554	606	560
N#Cc1cccc(-c2c[nH]c3ncnc(N4CCOCC4)c23)c1	508	595	553
CNC[C@H](O)c1ccc(O)c(O)c1	530	608	592
CNCC(O)c1ccc(O)cc1 (centres undefined)	565	618	579
S=P(N1CC1)(N1CC1)N1CC1	496	590	562
CCCN(CCC)C(=O)C(CCC(=O)O)NC(=O)c1ccccc1 (centres undefined)	504	570	524
Cn1c(=O)c2[nH]cnc2n(C)c1=O	447	555	469
OCCn1cc(-c2cnc3nnn(Cc4ccc5ncccc5c4)c3n2)cn1	497	600	543
